From US20090221989A1, “SYSTEM AND METHOD FOR THE PREVENTION AND TREATMENT OF BACTERIAL AND FUNGAL INFECTIONS INCLUDING URINARY TRACT INFECTIONS (UTI) USING A HYPOHALOUS ACID COMPOSITION” (Novabay Pharmaceuticals Inc, priority 2005, published 2009)

How the values were obtained:
[1] = system: Escherichia coli ATCC 25922 biofilm; assay: Biofilm disinfection on 1-cm Foley catheter pieces, plate count; type: cell-based; details: HOCl 2 mM in 0.9% saline pH 3.5, 48 h biofilm
Protocol: (§1) We have devised a dynamic in vitro model using traditional microbiological methods to assess the antimicrobial efficacy of 2 mM HOCl in 0.9% saline at pH 3.5, as compared to physiological saline in disinfecting intra-luminal and extra-luminal indwelling Foley catheter.
(§2) Foley Catheter, manufactured by BARD HOCl (2 mM) in 0.9% saline pH 3.5 (150 mM) Escherichia coli ATCC 25922 Proteus mirabilis ATCC 29245
(§3) Neutralizer Broth: A broth containing dextrose, lecithin, sodium thiosulfate, pancreatic digest of casein, Tween® 80, yeast extract, sodium bisulfate, sodium thioglycollate, monopotassium phosphate, and bromcresol purple.
(§4) The ability of HOCl to destroy biofilm formation was evaluated as follows. First, biofilm was established on 1-cm-long pieces of catheter for 48 hours in nutrient broth in the presence of either Proteus mirabilis or Escherichia coli. Subsequently, the biofilm-bearing pieces of catheter were exposed to 2 mM HOCl in 0.9% saline at pH 3.5 over various periods of time. After the exposures the pieces of catheter were transferred into 1 mL of neutralizer broth to stop the reaction. 0.1 mL (10%) of the neutralizer broth was then plated out onto nutrient agar and the number of colonies was counted. The CFU (Colony Forming Unit) values obtained were multiplied by 10 to obtain the actual CFU/mL values per treated sample.

[2] = system: Proteus mirabilis ATCC 29245 biofilm; assay: as above; type: cell-based; details: HOCl 2 mM in 0.9% saline pH 3.5, 48 h biofilm
Protocol: as §1, §2, §3, §4

[3] = system: E. coli and Pr. mirabilis biofilm; assay: Biofilm disinfection on Foley catheter pieces, both organisms pooled: re-culture OD600, overall CFU, visual examination; type: cell-based, Escherichia coli; Proteus mirabilis; details: HOCl 2 mM in 0.9% saline pH 3.5
Protocol: as §4, with “sample. In order to measure the amount of live bacteria left on the pieces of catheter following treatment, the biofilm-bearing pieces of catheter were transferred into tubes containing fresh growth medium. After allowing growth in a shaker at 37° C. for 4 hours, Optical Density (OD) was read at 600 nm. […] This was also shown by very low optical density readings (average of 0.057 OD600 units, individual data not listed) following the attempt to re-culture the bacteria from treated catheters.” for “sample.”

[4] = system: urease positive Escherichia coli ATCC 25922 biofilm; assay: Biofilm eradication in in vitro urinary catheter flow model; type: cell-based; details: for Log (CFU/cm2) / Log reduction: pH 4, 0.9% NaCl; for Log (CFU/cm2): 3-day biofilm, 10 min flow + 30 min stationary, average of 9 treatments; for Log reduction: versus saline
Protocol: A test system was established which utilized size 14 Foley catheters (supplied by NovaCal), which were cut and installed into a pre-sterilized flow system (FIG. 1) using aseptic techniques. The system consists of five parallel channels, one channel per catheter. Sterile medium was supplied to the system via a flow-break, to prevent back-growth into the medium reservoir. The entire system was placed in a 37° C. incubator. After conditioning the system with artificial urine medium for 30 minutes, 2.0 ml inoculum from an overnight culture of urease positive Escherichia coli ATCC 25922 grown in artificial urine medium at 37° C. was introduced into the system via the valve closest to the flow break (bladder side of catheter). Each inoculum was tested to confirm urease production. After inoculation, the system remained under static conditions (no flow) for two hours, to allow for bacterial attachment to the catheters. Flow of artificial urine medium was then initiated and maintained at a rate of 0.75 ml/min for 3 days. Initial experiments were conducted to evaluate consistency of biofilm formation in the model system. […] Day 5 and Day 7 counts remained at approximately that level. It was decided that treatment would be performed on Day 3 to prevent the possibility of biofilm detachment occurring. […] Sterile sections of tubing were attached from the syringe to the valve furthest from the flow break (bag end of the catheter). This end is designated as FRONT for sampling purposes. The pump was turned on and the treatments were introduced at 2.0 ml/min for 10 minutes through the catheters. Excess medium and treatment solution was captured in a waste container. After 10 minutes, the syringe pump was turned off and the solutions were left stationary in the catheters for 30 minutes. The solutions were then withdrawn back through the catheter into the syringe, medium flow was resumed for a 30 minute rinse time and the catheters were then sampled. For efficient sampling: Each catheter was divided into 3 segments (front, middle, end) and each segment was subsampled. One subsample was used to determine bacterial populations by plate count, another subsample was analyzed by staining with the LIVE/DEAD® BaclightTM bacterial viability kit ([…], Molecular Probes, Oregon, USA) using confocal laser microscopy (CSLM), the third sample was imaged using scanning electron microscopy (SEM). For viable cell counts, a 3.0 centimeter section of tubing was removed and scraped with a sterile stainless steel rod (using aseptic technique) into a tube containing 10.0 ml of sterile phosphate-buffered saline (PBS). The tubes were then sonicated for two minutes and the suspension was vortexed for one minute. The number of viable (culturable) bacteria was enumerated by serial dilution in PBS and plate counts using the spread-plate technique. Results were expressed as CFU/cm^2 and are calculated as follows: The surface area of the internal lumen of the catheter section scraped was determined to be 2.826 cm^2. Three treatment runs were performed on 3 catheters each. One treated with PBS or sterile 0.9% saline as control, one treated with 2 mM HOCl and one treated with 20 mM HOCl. The Log (CFU/cm^2) was calculated from the average of 9 treatments, consisting of 3 treatments of 3 catheter pieces for each Test Article.

[5] = system: urease positive Escherichia coli ATCC 25922 biofilm; assay: Biofilm prevention in in vitro urinary catheter flow model; type: cell-based
Protocol: Day 0: The test system, as described in detail above, utilized size 14 Foley catheters, cut and installed into a pre-sterilized flow system using aseptic techniques. Sterile medium was supplied to the system via a flow-break, to prevent back-growth into the medium reservoir. The entire system was placed into a 37 AC incubator. After conditioning the system with artificial urine medium for 30 minutes, each catheter was treated with a disinfectant. 20.0 ml of each treatment solution was loaded into 30 ml syringes and connected to a syringe pump. Sterile sections of tubing were attached from the syringe to the valve furthest from the flow break (bag end of the catheter). This end is designated as FRONT for sampling purposes. The pump was turned on and the treatments were introduced at 2.0 ml/min for 10 minutes through the catheters. Excess medium and treatment solution was captured in a waste container. After 10 minutes, the syringe pump was turned off and the solutions were left stationary in the catheters for 30 minutes. The solutions were then withdrawn back through the catheter into the syringe. The catheters were then rinsed with sterile medium for 30 minutes. On Day 0 only: An inoculum from an overnight culture of urease positive Escherichia coli ATCC 25922 grown in artificial urine medium at 37° C. was introduced into the system via the valve closest to the flow break (bladder side of catheter). Each inoculum was tested for confirmation of urease production. After inoculation, the system remained under static conditions (no flow) for two hours, to allow for bacterial attachment to the catheters. Flow of artificial urine medium was then initiated and maintained at a rate of 0.75 ml/min. Days 1, 3 and 5: For viable cell counts, a 3.0 centimeter section of tubing was removed and scraped with a sterile stainless steel rod (using aseptic technique) into a tube containing 10.0 ml of sterile PBS. The tubes were then sonicated for two minutes and the suspension was vortexed for one minute. The number of viable (culturable) bacteria was enumerated by serial dilution in PBS and plate counts using the spread-plate technique. Results are expressed as CFU/cm^2 and were calculated as described in Phase One. Days 1 and 3: After sampling, the catheters were disinfected and rinsed with sterile medium as described above. Days 2 and 4: the catheters were disinfected and rinsed with sterile medium as described above. No samples were taken. Day 5: Samples were taken for imaging and both ends of the catheter were sampled for viable cell count data.

[6] = system: viable (culturable) bacteria on patient catheter; assay: Ex-vivo treatment of a patient Foley catheter, viable plate counts; type: cell-based
Source text: A Foley catheter was removed from a patient by hospital personnel and placed in a sterile bag. In the Bozeman Deaconess Hospital (BDH) lab, the outside of the catheter was wiped down with 70% ethanol. Then the catheter was aseptically cut into 3 catheter portions (bag-end, middle and patient-end). Each portion was cut into 3.0 cm long sections using a ruler and razor blades.
Three of the sections (one bag-end, one middle and one patient-end) designated as control were placed into sterile PBS. Three of the sections (one bag-end, one middle and one patient-end) were placed in 20 mM HOCl. All catheter sections were treated for 30 minutes individually in sterile glass tubes, each with sufficient solution to be immersed completely. After treatment, each 3 cm section was removed from the treatment tubes and the PBS control tubes and placed into a second glass tube containing sterile PBS for a 2 minute rinse in order to remove the treatment solution. The section was then removed from the tube and aseptically cut into 1.0 cm and 2.0 cm pieces. The 2.0 cm piece was placed in a tube containing 10 ml of sterile PBS, vortexed, sonicated and diluted for viable plate counts. The number of viable (culturable) bacteria was enumerated by serial dilution in PBS and plate counts using the spread-plate technique. Samples were plated on blood agar plates. Results will be expressed as colony-forming units/cm^2, CFU/cm^2 (calculated as 2.0 cm length×0.25 cm (radius)×3.14 (pi)=1.57 cm^2). The 1.0 cm piece was placed in 4% formaldehyde solution.

[7] = HOCl 20 mM, pH 4, 0.9% NaCl, 30 minutes immersion

OCl [HOCl, hypochlorous acid]
CFU/mL ([1]; exposure 5 min): 460 CFU/mL | CFU/mL ([1]; exposure 10 min): 0 CFU/mL | CFU/mL ([1]; exposure 20 min): 0 CFU/mL | CFU/mL ([1]; exposure 30 min): 0 CFU/mL | CFU/mL ([1]; exposure 45 min): 0 CFU/mL | CFU/mL ([1]; exposure 60 min): 0 CFU/mL | CFU/mL ([1]; exposure 120 min): 0 CFU/mL | CFU/mL ([1]; exposure <1 min): 50 CFU/mL | CFU/mL ([2]; exposure 5 min): 110 CFU/mL | CFU/mL ([2]; exposure 10 min): 40 CFU/mL | CFU/mL ([2]; exposure 20 min): 50 CFU/mL | CFU/mL ([2]; exposure 30 min): 0 CFU/mL | CFU/mL ([2]; exposure 45 min): 20 CFU/mL | CFU/mL ([2]; exposure 60 min): 0 CFU/mL | CFU/mL ([2]; exposure 120 min): 90 CFU/mL | CFU/mL ([2]; exposure <1 min): >>3000 CFU/mL | visual examination of biofilm on catheter surface [3]: subsequent removal | optical density readings after re-culture of treated catheters (average) ([3]; 4 h growth at 37° C. in fresh medium, average, individual data not listed): 0.057 OD600 units | recoverable CFU/mL bacteria ([3]; catheters infected 48 hours): minimal recoverable CFU/mL bacteria | Log (CFU/cm2) ([4]; HOCl 2 mM): 4.8 Log (CFU/cm2) | Log reduction ([4]; HOCl 2 mM): −4.3 | bacterial removal, higher versus lower concentration ([4]; HOCl 20 mM versus 2 mM): significantly more bacterial removal than the lower concentration | Log (CFU/cm2) ([4]; HOCl 20 mM): 2.5 Log (CFU/cm2) | Log reduction ([4]; HOCl 20 mM): −6.6 | bacterial counts and presence of biofilm (visual interpretation from images) ([4]; HOCl at 2 mM and 20 mM): significantly reduced bacterial counts and the presence of biofilm | inhibition of biofilm formation ([5]; 5 day duration, 20 mM): appeared to inhibit biofilm formation | viable cell count Day 1 ([5]; Day 1, daily treatment, HOCl 20 mM pH 4 0.9% NaCl, vinegar 1:3 in water, Neomycin 1 ml in 1000 ml saline): 3.5 CFU/cm^2 | viable cell count Day 3 ([5]; Day 3, daily treatment, HOCl 20 mM pH 4 0.9% NaCl, vinegar 1:3 in water, Neomycin 1 ml in 1000 ml saline): 0.0 CFU/cm^2 | viable cell count Day 5 “Front” (bag end) ([5]; Day 5, bag end, daily treatment, HOCl 20 mM pH 4 0.9% NaCl, vinegar 1:3 in water, Neomycin 1 ml in 1000 ml saline): 0.0 CFU/cm^2 | viable cell count Day 5 “End” (bladder end) ([5]; Day 5, bladder end, daily treatment, HOCl 20 mM pH 4 0.9% NaCl, vinegar 1:3 in water, Neomycin 1 ml in 1000 ml saline): 0.0 CFU/cm^2 | inhibition of biofilm formation compared to vinegar and Neosporin ([5]; especially by Day 5, 20 mM): significantly better at inhibiting biofilm formation | Log reduction ([6]; HOCl 20 mM versus sterile PBS, average of 3 pieces): 2.4 | Average Log CFU/cm^2 on catheter section after treatment, Bag end [6, 7]: 0.50 Log CFU/cm^2 | Average Log CFU/cm^2 on catheter section after treatment, average 3 pieces [6, 7]: 0.53 Log CFU/cm^2 | Average Log CFU/cm^2 on catheter section after treatment, middle [6, 7]: 0.58 Log CFU/cm^2 | Average Log CFU/cm^2 on catheter section after treatment, patient end [6, 7]: 0.50 Log CFU/cm^2
